Like-named read-outs stand apart in the source and are kept apart here. Positions of bridges follow the written chain, without caps; N, C: chain ends. Residues, ends and D or L forms follow the SMILES beside them. No end group written: not given here.
Tests used:
human APLNR (hAPLNR1) = biological target: T1, human APLNR (hAPLNR1) (Homo sapiens, UniProt P35414); test: pGL3-CRE-luciferase reporter assay, HEK293 cells expressing human APLNR; assay type: cell-based; details: SEM; read-out: EC50 (nM) hAPLNR
T1 construct: human APLNR ORF was also amplified by PCR and cloned into pcDNA3.1 (+) expression vector; expressed in transfected cells; host or cells: HEK293
T1 sequence (P35414 1-380): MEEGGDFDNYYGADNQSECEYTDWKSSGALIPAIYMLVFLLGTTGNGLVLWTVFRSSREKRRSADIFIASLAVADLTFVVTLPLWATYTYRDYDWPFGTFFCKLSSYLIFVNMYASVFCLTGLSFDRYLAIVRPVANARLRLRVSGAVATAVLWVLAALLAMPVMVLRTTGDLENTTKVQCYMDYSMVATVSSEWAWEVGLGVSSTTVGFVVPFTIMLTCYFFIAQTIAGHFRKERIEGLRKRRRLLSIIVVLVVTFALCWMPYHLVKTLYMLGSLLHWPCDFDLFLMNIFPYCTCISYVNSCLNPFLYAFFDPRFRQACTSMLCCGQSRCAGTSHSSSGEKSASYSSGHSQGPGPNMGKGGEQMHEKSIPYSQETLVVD
Method: In brief, HEK293 cells were cultured on a six-well plate and grown for 24 h before transfection. The cells were then transfected with a mixture containing 700 ng pGL3-CRE-Luciferase reporter construct (or pGL4-SRE-Luciferase reporter construct), 200 ng of receptor expression plasmid [or empty pcDNA3.1(+) vector as a negative control], and 2 μl jetPRIME (Polyplus Transfection, Illkirch, France) in 200 μl buffer. Twenty-four hour later, HEK293 cells were sub-cultured into a 96-well plate at 37°C for an additional 24 h before treatment. After removal of medium from the 96-well plate, the cells were treated with 100 μl peptide-containing medium (or peptide-free medium) for 6 h in the presence or absence of forskolin (5 μM). […] The luciferase activity in each treatment group was expressed as the relative fold changes as compared with their respective control groups. The data were analyzed by non-linear regression followed by one-way ANOVA using GraphPad Prism 5 (GraphPad, San Diego, CA, USA). To validate the results, all experiments were repeated at least twice.

[1] = biological target: T2, zebrafish APLNR2a (zfAPLNR2a) (Danio rerio, UniProt Q7SZP9); test: pGL3-CRE-luciferase reporter assay, HEK293 cells expressing zebrafish APLNR2a; assay type: cell-based
T2 construct: the open reading frame (ORF) of each APLNR was amplified from the animal; expressed in transfected cells; host or cells: HEK293
T2 sequence (Q7SZP9 1-362): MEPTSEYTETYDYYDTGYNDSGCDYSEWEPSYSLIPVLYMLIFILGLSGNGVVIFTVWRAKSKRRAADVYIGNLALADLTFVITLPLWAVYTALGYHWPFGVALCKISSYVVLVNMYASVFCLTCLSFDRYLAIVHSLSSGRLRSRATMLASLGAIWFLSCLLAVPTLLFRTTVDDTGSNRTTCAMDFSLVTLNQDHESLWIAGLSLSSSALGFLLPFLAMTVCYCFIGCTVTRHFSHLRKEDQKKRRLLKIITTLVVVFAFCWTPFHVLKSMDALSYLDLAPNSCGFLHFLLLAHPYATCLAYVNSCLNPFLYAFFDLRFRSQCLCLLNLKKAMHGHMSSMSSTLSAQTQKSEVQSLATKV
Method: (§1) In brief, HEK293 cells were cultured on a six-well plate and grown for 24 h before transfection. The cells were then transfected with a mixture containing 700 ng pGL3-CRE-Luciferase reporter construct (or pGL4-SRE-Luciferase reporter construct), 200 ng of receptor expression plasmid [or empty pcDNA3.1(+) vector as a negative control], and 2 μl jetPRIME (Polyplus Transfection, Illkirch, France) in 200 μl buffer. Twenty-four hour later, HEK293 cells were sub-cultured into a 96-well plate at 37°C for an additional 24 h before treatment. After removal of medium from the 96-well plate, the cells were treated with 100 μl peptide-containing medium (or peptide-free medium) for 6 h in the presence or absence of forskolin (5 μM). Finally, HEK293 cells were lysed with 1 × passive lysis buffer for luciferase assay (Promega, Madison, WI, USA) and the luciferase activity of the cell lysate was measured by a Multimode microplate Reader (TriStar LB 941, EG&G Berthold, Germany) according to the manufacturer's instruction.
(§2) The luciferase activity in each treatment group was expressed as the relative fold changes as compared with their respective control groups. The data were analyzed by non-linear regression followed by one-way ANOVA using GraphPad Prism 5 (GraphPad, San Diego, CA, USA). To validate the results, all experiments were repeated at least twice.

[2] = biological target: T3, zebrafish APLNR2b (zfAPLNR2b) (Danio rerio, UniProt A0T2N3); test: pGL3-CRE-luciferase reporter assay, HEK293 cells expressing zebrafish APLNR2b; assay type: cell-based
T3 construct: the open reading frame (ORF) of each APLNR was amplified from the animal; expressed in transfected cells; host or cells: HEK293
T3 sequence (A0T2N3 1-359): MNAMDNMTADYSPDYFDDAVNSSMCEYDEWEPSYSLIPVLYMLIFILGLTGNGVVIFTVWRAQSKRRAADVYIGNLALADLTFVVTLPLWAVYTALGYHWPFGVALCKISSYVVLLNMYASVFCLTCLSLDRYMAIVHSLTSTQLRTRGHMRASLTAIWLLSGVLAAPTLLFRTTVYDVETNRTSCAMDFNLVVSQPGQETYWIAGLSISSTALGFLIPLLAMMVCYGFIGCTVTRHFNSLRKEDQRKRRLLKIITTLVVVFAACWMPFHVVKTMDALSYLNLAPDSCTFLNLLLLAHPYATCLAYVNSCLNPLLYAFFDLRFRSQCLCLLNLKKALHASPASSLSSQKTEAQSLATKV
Method: as §1, §2

[3] = test system: zebrafish APLNR3a (zfAPLNR3a); test: pGL3-CRE-luciferase reporter assay, HEK293 cells expressing zebrafish APLNR3a; assay type: cell-based, zebrafish (Danio rerio); details: HEK293 cells transiently expressing zfAPLNR3a; inhibition of forskolin (5 μM)-stimulated pGL3-CRE-luciferase activity; 6 h; mean ± S.E. of 3 independent experiments; N = EC50 cannot be evaluated
Method: as §1, §2

[4] = test system: tilapia APLNR3b (tiAPLNR3b); test: pGL3-CRE-luciferase reporter assay, HEK293 cells expressing tilapia APLNR3b; assay type: cell-based, Nile tilapia (Oreochromis niloticus); details: HEK293 cells transiently expressing tiAPLNR3b; inhibition of forskolin (5 μM)-stimulated pGL3-CRE-luciferase activity; 6 h; mean ± S.E. of 3 independent experiments; N = EC50 cannot be evaluated
Method: as §1, §2

Row | Compound | EC50 (human APLNR (hAPLNR1)) [nM] | EC50 ([1]; SEM) [nM] | EC50 ([2]; SEM) [nM] | EC50 [1] [nM] | EC50 [2] [nM] | EC50 [3] [nM] | EC50 [4] [nM]
1 | CSCC[C@H](NC(=O)[C@@H]1CCCN1C(=O)CNC(=O)[C@H](CCCCN)NC(=O)[C@H](Cc1c[nH]cn1)NC(=O)[C@H](CO)NC(=O)[C@H](CC(C)C)NC(=O)[C@H](CCCNC(=N)N)NC(=O)[C@@H]1CCCN1C(=O)[C@H](CCCNC(=N)N)NC(=O)[C@@H]1CCCN1)C(=O)N1CCC[C@H]1C(=O)N[C@@H](Cc1ccccc1)C(=O)O [cApelin-13] | 0.55 ± 0.21 | 2.82 ± 1.18 | 12.7 ± 5.21 | – | – | – | –
2 | CSCC[C@H](NC(=O)[C@@H](N)CS)C(=O)N1CCC[C@H]1C(=O)N[C@@H](CC(C)C)C(=O)N[C@@H](Cc1cnc[nH]1)C(=O)N[C@@H](CO)C(=O)N[C@@H](CCCNC(=N)N)C(=O)N[C@H](C(=O)N1CCC[C@H]1C(=O)N[C@@H](Cc1ccccc1)C(=O)N1CCC[C@H]1C(=O)O)C(C)C [cELA-11] | – | – | – | > 100 | > 100 | – | –
3 | CC(C)C[C@H](NC(=O)[C@@H]1CCCN1C(=O)[C@H](CC(C)C)NC(=O)[C@H](CS)NC(=O)[C@H](CCCNC(=N)N)NC(=O)[C@H](CCCCN)NC(=O)[C@H](CCCCN)NC(=O)[C@@H]1CCCN1C(=O)[C@H](CS)NC(=O)[C@H](CC(N)=O)NC(=O)[C@H](Cc1c[nH]cn1)NC(=O)[C@H](CCCNC(=N)N)NC(=O)[C@H](CCCNC(=N)N)NC(=O)[C@H](Cc1ccc(O)cc1)NC(=O)[C@@H](N)CCCCN)C(=O)N[C@@H](Cc1c[nH]cn1)C(=O)N[C@@H](CO)C(=O)N[C@@H](CCCNC(=N)N)C(=O)N[C@H](C(=O)N1CCC[C@H]1C(=O)N[C@@H](Cc1ccccc1)C(=O)N1CCC[C@H]1C(=O)O)C(C)C [zfELA-22] (H-KYRRHNCPKKRCLPLHSRVPFP-OH; N-terminus and C-terminus assumed) | – | 1.43 ± 0.57 | 1.78 ± 1.17 | – | – | > 100 | > 100
4 | LVRPRGARRGNVRRPGGWRRLRRPRPRLSHKGPMPF [cApelin-36] | 0.16 ± 0.06 | 2.96 ± 1.26 | 0.9 ± 0.33 | – | – | – | –

More lines, main results first:

Row | EC50 (human APLNR (hAPLNR1)) [nM] | EC50 ([1]; SEM) [nM] | EC50 ([2]; SEM) [nM] | EC50 [1] [nM] | EC50 [2] [nM] | Compound | EC50 [3] [nM] | EC50 [4] [nM]
5 | 0.26 ± 0.07 | 1.81 ± 0.74 | 2.55 ± 0.11 | – | – | CSCC[C@H](NC(=O)[C@@H]1CSSC[C@H](NC(=O)[C@H](CC(N)=O)NC(=O)[C@H](Cc2c[nH]cn2)NC(=O)[C@H](CCCNC(=N)N)NC(=O)[C@H](Cc2c[nH]cn2)NC(=O)[C@H](CC(C)C)NC(=O)[C@H](CCCCN)NC(=O)[C@H](CCCNC(=N)N)NC(=O)[C@H](CCCNC(=N)N)NC(=O)[C@H](CC(C)C)NC(=O)[C@H](C)NC(=O)[C@H](CC(C)C)NC(=O)[C@H](CC(N)=O)NC(=O)[C@H](C)NC(=O)[C@@H]2CCCN2C(=O)[C@H](CCCNC(=N)N)NC(=O)[C@@H](N)CCC(N)=O)C(=O)N[C@@H](CO)C(=O)N[C@@H](Cc2c[nH]cn2)C(=O)N[C@@H](CCCNC(=N)N)C(=O)N[C@@H](CCCNC(=N)N)C(=O)N1)C(=O)N1CCC[C@H]1C(=O)N[C@@H](CC(C)C)C(=O)N[C@@H](Cc1c[nH]cn1)C(=O)N[C@@H](CO)C(=O)N[C@@H](CCCNC(=N)N)C(=O)N[C@H](C(=O)N1CCC[C@H]1C(=O)N[C@@H](Cc1ccccc1)C(=O)N1CCC[C@H]1C(=O)O)C(C)C [cELA-32a] (H-QRPANLALRRKLHRHNCSHRRCMPLHSRVPFP-OH; disulfide 17-22) | – | –
6 | 0.28 ± 0.05 | 1.68 ± 0.58 | 1.02 ± 0.23 | – | – | CSCC[C@H](NC(=O)[C@H](CS)NC(=O)[C@H](CCCNC(=N)N)NC(=O)[C@H](CCCNC(=N)N)NC(=O)[C@H](Cc1c[nH]cn1)NC(=O)[C@H](CO)NC(=O)[C@H](CS)NC(=O)[C@H](CC(N)=O)NC(=O)[C@H](Cc1c[nH]cn1)NC(=O)[C@H](CCCNC(=N)N)NC(=O)[C@H](Cc1c[nH]cn1)NC(=O)[C@H](CC(C)C)NC(=O)[C@H](CCCCN)NC(=O)[C@H](CCCNC(=N)N)NC(=O)[C@H](CCCNC(=N)N)NC(=O)[C@H](CC(C)C)NC(=O)[C@H](C)NC(=O)[C@H](CC(C)C)NC(=O)[C@H](CC(N)=O)NC(=O)[C@H](C)NC(=O)[C@@H]1CCCN1C(=O)[C@H](CCCNC(=N)N)NC(=O)[C@@H](N)CCC(N)=O)C(=O)N1CCC[C@H]1C(=O)N[C@@H](CC(C)C)C(=O)N[C@@H](Cc1c[nH]cn1)C(=O)N[C@@H](CO)C(=O)N[C@@H](CCCNC(=N)N)C(=O)N[C@H](C(=O)N1CCC[C@H]1C(=O)N[C@@H](Cc1ccccc1)C(=O)N1CCC[C@H]1C(=O)O)C(C)C [cELA-32b] (H-QRPANLALRRKLHRHNCSHRRCMPLHSRVPFP-OH) | – | –

— publication PMC6315173, “Characterization of the Apelin/Elabela Receptors (APLNR) in Chickens, Turtles, and Zebrafish: Identification of a Novel Apelin-Specific Receptor in Teleosts” (Frontiers in Endocrinology, 2018)
